Assays:
[1] = tested on: L1210 (ATCC CCL-219) mouse lymphocytic leukemia cells; experiment: Cell growth inhibition assay; type: cell-based; conditions: for fold less active than duocarmycin SA (loss in activity): L1210, relative to duocarmycin SA
PAMPA assay = type: in vitro ADME; conditions: for Papp at 5 h, 1 μM: pH 7.4

Structure (SMILES) | fold less active than duocarmycin SA (loss in activity) [1] | Papp at 5 h, 1 μM (PAMPA assay) [×10⁻⁶ cm/s] | fold reduction in permeability relative to 2 (PAMPA assay; relative to 2) [fold] | IC50 ([1]; Mus musculus, L1210, read-out: –log IC50, cell growth inhibition (converted)) [nM]
COCCOc1cc2cc(C(=O)N3C[C@@H](CCl)c4c3cc(O)c3[nH]c(C(=O)OC)cc43)[nH]c2c(OCCOC)c1OCCOC [10a] | approximately 5 fold |  |  | 
COCCOCCOCCOCCOCCOc1cc2cc(C(=O)N3C[C@@H](CCl)c4c3cc(O)c3[nH]c(C(=O)OC)cc43)[nH]c2c(OCCOCCOCCOCCOCCOC)c1OCCOCCOCCOCCOCCOC [10e] |  | 0.11 | 85 | 398
COCCOc1c(OC)cc2cc(C(=O)N3C[C@@H](CCl)c4c3cc(O)c3[nH]c(C(=O)OC)cc43)[nH]c2c1OC [15a] | approximately 2 fold | 4 |  | 
COCCOCCOCCOCCOCCOc1c(OC)cc2cc(C(=O)N3C[C@@H](CCl)c4c3cc(O)c3[nH]c(C(=O)OC)cc43)[nH]c2c1OC [15e] | 30 fold | 2.1 |  | 
COC(=O)c1cc2c([nH]1)C(=O)C=C1N(C(=O)c3cc4cc(OC)c(OC)c(OC)c4[nH]3)CC3CC123 (stereo not drawn) [compound 2, duocarmycin SA, reference compound] |  | 9.5 |  | 
